Results reported in US7709513B2, “Benzooxazol-2-one derivatives as lipase and phospholipase inhibitors” (Sanofi-Aventis, priority 2005, dated 2010).

Each molecule was assayed against T1, endothelial lipase (EL) (Homo sapiens, UniProt Q9Y5X9) (assay: Further EL inhibition assay). Conditions: Bodipy-labelled phospholipid substrate, 37° C., 90 minutes, HPTLC fluorescence readout; EL from conditioned medium of recombinant cell lines (CHO, HEK293).
T1 construct: made in house; host or cells: recombinant cell lines (CHO, HEK293); concentrated conditioned medium used as enzyme solution
T1 sequence (Q9Y5X9 21-500): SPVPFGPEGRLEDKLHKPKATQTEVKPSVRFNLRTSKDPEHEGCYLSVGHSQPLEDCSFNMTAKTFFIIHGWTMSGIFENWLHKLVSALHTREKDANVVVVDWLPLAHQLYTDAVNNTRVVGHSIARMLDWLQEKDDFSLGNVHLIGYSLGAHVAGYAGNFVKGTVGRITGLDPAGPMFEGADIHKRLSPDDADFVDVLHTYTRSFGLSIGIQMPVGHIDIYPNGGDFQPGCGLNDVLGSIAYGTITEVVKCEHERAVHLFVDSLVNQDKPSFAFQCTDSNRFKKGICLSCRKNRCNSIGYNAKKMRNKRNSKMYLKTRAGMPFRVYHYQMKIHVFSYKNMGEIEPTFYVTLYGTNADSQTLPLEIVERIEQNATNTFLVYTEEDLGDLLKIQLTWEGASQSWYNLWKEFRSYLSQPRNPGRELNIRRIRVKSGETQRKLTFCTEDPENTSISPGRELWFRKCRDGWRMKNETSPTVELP
Assay type: biochemical
Source text: EL is released as secretory protein in high concentration into cell culture medium (conditioned medium) by recombinant cell lines (CHO, HEK293). This is employed as enzyme solution after concentration.
The phospholipase-specific substrate 1,2-bis(4,4-difluoro-5,7-dimethyl-4-bora-3a,4a-diaza-s-indacene-3-undecanoyl)-sn-glycero-3-phosphocholine, (manufacturer Molecular Probes) is used to characterize the enzymatic activity of endothelial lipase and the effect of inhibitors. Hydrolysis of the A1 ester linkage of this phospholipid by the enzyme liberates the fluorescent dye Bodipy which can be detected after separation by thin-layer chromatography on an HPTLC plate (silica gel 60, Merck) or directly in the reaction vessel by measuring the fluorescence.
The substrate solution is prepared by dissolving 100 μg of 1,2-bis(4,4-difluoro-5,7-dimethyl-4-bora-3a,4a-diaza-s-indacene-3-undecanoyl)-sn-glycero-3-phospho-choline (manufacturer Molecular Probes) in 100 μl of DMSO and taking up in 2.4 mg of tripalmitin (Sigma) in 393 μl of chloroform which comprises 20 mg/ml DOP-choline (1,2-dioleoyl-sn-glycero-3-phosphocholine). 39.3 μl of this lipid mixture are transferred into a fresh reaction vessel, and the solvent is evaporated off. The lipid mixture is dissolved in 4 ml of 200 mM TRIS-HCl, 150 mM sodium chloride, pH=7.4, by sonication twice. The subsequent enzymic reaction takes place at 37° C. for 90 minutes. For this purpose, 20 μl of the substrate solution are incubated with 2 μl of inhibitor of appropriate concentration (dissolved in 10% DMSO, using 10% strength DMSO solution for control) and 2 μl of enzyme solution (conditioned medium). The 4 μl of the assay mixture are loaded onto an HPTLC plate (silica gel 60, Merck), and the liberated fluorescent dye is separated for detection with an eluent (diethyl ether:petroleum benzine:acetic acid [78:22:1]). After evaporation of the eluent, the plate is read in a fluorescence scanner. An increased liberation of the fluorescent dye in the uninhibited reaction is to be observed as a measure of the enzymic activity.
Molecule CC(=O)c1ccc2c(c1)oc(=O)n2C(=O)NCc1ccccc1 [Example 1, 6-Acetyl-2-oxobenzooxazole-3-benzylcarboxamide] has an IC50 of 0.13 µM.
CC(=O)c1ccc2c(c1)oc(=O)n2C(=O)NCc1ccccc1C [Example 2, 6-Acetyl-2-oxobenzooxazole-3-(2-methylbenzyl)carboxamide] gave an IC50 of 0.51 µM.
CCCCCCNC(=O)n1c(=O)oc2cc(C(C)=O)ccc21 [Example 3, 6-Acetyl-2-oxobenzooxazole-3-hexylcarboxamide] gave an IC50 of 0.06 µM.
With Cc1ccccc1CNC(=O)n1c(=O)oc2ccccc21 [Example 5, 2-Oxobenzooxazole-3-(2-methylbenzyl)carboxamide] the IC50 was 0.95 µM.
O=C(NCc1ccccc1)n1c(=O)oc2ccc(Cl)cc21 [Example 7, 5-Chloro-2-oxobenzooxazole-3-benzylcarboxamide] was tested, and the IC50 was 0.23 µM.
